Laboratory results as given in PMC3700404 (Chemistry & biology, 2008).

Assays:
[1] = test system: CB2 receptor S7.39A mutant; details: ref Rhee (2002); cited from earlier work
[2] = test system: C6.47(257)K, C6.47(257)I, C6.47(257)L, C6.47(257)D or C6.47(257)Y mutant hCB2 receptors; assay: Saturation-binding assay, further C6.47; design: species or system human; details: data not shown
[3] = target: T1, hCB2 C6.47(257)S mutant receptor (Homo sapiens, UniProt P34972, C257S); assay: Competitive binding assay, hCB2 C6.47; details: for Ki: mean (95% CI); for increase in affinity over WT hCB2 receptor: C6.47(257)S vs WT
T1 sequence (P34972 whole entry C257S): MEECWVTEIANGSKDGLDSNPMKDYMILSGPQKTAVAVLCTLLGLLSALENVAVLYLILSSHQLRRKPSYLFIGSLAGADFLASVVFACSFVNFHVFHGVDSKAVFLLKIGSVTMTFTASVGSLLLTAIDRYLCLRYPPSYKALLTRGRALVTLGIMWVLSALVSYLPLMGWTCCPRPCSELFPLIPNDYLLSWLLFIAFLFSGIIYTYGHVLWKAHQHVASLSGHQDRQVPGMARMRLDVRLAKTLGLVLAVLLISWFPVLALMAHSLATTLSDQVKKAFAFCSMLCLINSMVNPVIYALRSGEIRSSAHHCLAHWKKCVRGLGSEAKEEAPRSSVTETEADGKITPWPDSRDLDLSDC

[4] = target: T2, hCB2 C6.47(257)A mutant receptor (Homo sapiens, UniProt P34972, C257A); assay: Competitive binding assay, hCB2 C6.47; details: for enhancement of ability to displace CP55940 versus WT hCB2 / increase in affinity over WT hCB2 receptor: C6.47(257)A vs WT; for Ki: mean (95% CI)
T2 sequence (P34972 whole entry C257A): as the sequence (P34972 whole entry C257S) above, with S257A counted along it

[5] = target: hCB2 K3.28(109)A mutant receptor (Homo sapiens, UniProt P34972, K109A); assay: Competitive binding assay, hCB2 K3.28; details: radioligand [3H]-CP55940; mean (95% CI)
Sequence of hCB2 K3.28(109)A mutant receptor (P34972 whole entry K109A): as the sequence (P34972 whole entry C257S) above, with K109A, S257C counted along it

[6] = target: hCB1 K3.28(192)A mutant receptor (Homo sapiens, UniProt P21554, K192A); assay: Competitive binding assay, hCB1 K3.28; details: radioligand [3H]-CP55940
Sequence of hCB1 K3.28(192)A mutant receptor (P21554 whole entry K192A): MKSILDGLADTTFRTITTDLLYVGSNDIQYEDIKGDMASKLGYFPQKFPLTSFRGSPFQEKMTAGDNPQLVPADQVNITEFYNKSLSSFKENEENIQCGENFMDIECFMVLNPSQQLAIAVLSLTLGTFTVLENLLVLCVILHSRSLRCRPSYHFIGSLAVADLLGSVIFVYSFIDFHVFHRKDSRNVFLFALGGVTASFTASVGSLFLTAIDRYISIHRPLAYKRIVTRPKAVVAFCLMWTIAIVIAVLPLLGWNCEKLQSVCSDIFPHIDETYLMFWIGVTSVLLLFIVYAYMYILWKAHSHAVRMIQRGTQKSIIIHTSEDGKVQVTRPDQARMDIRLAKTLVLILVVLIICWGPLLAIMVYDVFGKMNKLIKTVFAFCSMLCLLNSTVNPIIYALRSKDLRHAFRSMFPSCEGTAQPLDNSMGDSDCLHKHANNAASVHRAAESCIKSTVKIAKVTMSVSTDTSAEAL

[7] = test system: C6.47(257)K, C6.47(257)I, C6.47(257)L, C6.47(257)D, and C6.47(257)Y hCB2 receptor mutants; assay: Competitive binding assay, further C6.47; design: species or system human; details: radioligand [3H]-CP55940; data not shown
WT hCB2 receptor [8] = target: T3, WT hCB2 receptor (Homo sapiens, UniProt P34972); assay: Inhibition of forskolin-stimulated cAMP accumulation, WT hCB2 cells; type: cell-based; details: read-out: IC50, inhibition of forskolin-stimulated cAMP accumulation; HEK293 cells, 5 μM forskolin, 5 min; mean (95% CI)
T3 sequence (P34972 whole entry): as the sequence (P34972 whole entry C257S) above, with S257C counted along it

[9] = target: T2, hCB2 C6.47(257)A mutant receptor; assay: Inhibition of forskolin-stimulated cAMP accumulation, hCB2 C6.47; type: cell-based; details: read-out: IC50, inhibition of forskolin-stimulated cAMP accumulation; HEK293 cells, 5 μM forskolin, 5 min; mean (95% CI)
[10] = target: T1, hCB2 C6.47(257)S mutant receptor; assay: as above; type: cell-based; details: read-out: IC50, inhibition of forskolin-stimulated cAMP accumulation; HEK293 cells, 5 μM forskolin, 5 min; mean (95% CI)
[11] = target: hCB2 C7.38(284)S mutant receptor (Homo sapiens, UniProt P34972, C284S); assay: Affinity-labeling assay, hCB2 C7.38; details: 9 nM AM-841, 1 hr, 30°C, washed
Sequence of hCB2 C7.38(284)S mutant receptor (P34972 whole entry C284S): as the sequence (P34972 whole entry C257S) above, with S257C, C284S counted along it

[12] = target: hCB2 C7.42(288)S mutant receptor (Homo sapiens, UniProt P34972, C288S); assay: Affinity-labeling assay, hCB2 C7.42; details: 9 nM AM-841, 1 hr, 30°C, washed
Sequence of hCB2 C7.42(288)S mutant receptor (P34972 whole entry C288S): as the sequence (P34972 whole entry C257S) above, with S257C, C288S counted along it

[13] = target: T2, hCB2 C6.47(257)A mutant receptor; assay: Affinity-labeling assay, hCB2 C6.47; details: 9 nM AM-841, 1 hr, 30°C, washed
[14] = target: T1, hCB2 C6.47(257)S mutant receptor; assay: Affinity-labeling assay, hCB2 C6.47; details: 9 nM AM-841, 1 hr, 30°C, washed
WT hCB2 receptor [15] = target: T3, WT hCB2 receptor; assay: Affinity-labeling assay

## CCCCCCC(C)(C)c1cc(O)c2c(c1)OC(C)(C)[C@@H]1CC[C@@H](CO)C[C@@H]21 [HU-243]
[1]
  loss of affinity in S7.39A mutant: over 10 fold

## CCCCCCC(C)(C)c1ccc([C@@H]2C[C@H](O)CC[C@H]2CCCO)c(O)c1 [[^3H]-CP55940]
[2]
  specific binding of radioligand: no specific binding

## CC(C)(CCCCCCN=C=S)c1cc(O)c2c(c1)OC(C)(C)C1CCC(CO)CC21 (single isomer, unassigned; (-)) [AM-841, (−)-7′-isothiocyanato-11-hydroxy-1′,1′-di-methylheptylhexahydrocannabinol]
[3]; radioligand [3H]-CP55940
  Ki: 1.68 nM
[3]; radioligand [3H]-WIN55212-2
  increase in affinity over WT hCB2 receptor: 3–6 fold
  Ki: 1.5 nM
[4]; radioligand [3H]-CP55940
  enhancement of ability to displace CP55940 versus WT hCB2: at least 2 fold
  Ki: 0.71 nM
[4]; radioligand [3H]-WIN55212-2
  increase in affinity over WT hCB2 receptor: 3–6 fold
  Ki: 0.7 nM
[5]
  Ki: 2.31 nM
[6]
  Ki: No Specific Binding
[7]
  specific binding in competitive binding assay: no specific binding
WT hCB2 receptor [8]
  IC50: 0.079 nM
[9]
  IC50: 6.01 nM
[10]
  IC50: 2.88 nM
[11]
  decrease in [3H]-CP55940 binding after AM-841 pretreatment: ~ 80%
[12]
  decrease in [3H]-CP55940 binding after AM-841 pretreatment: ~ 80%
[13]
  decrease in [3H]-CP55940 Bmax after AM-841 pretreatment: no distinct decrease
[14]
  decrease in [3H]-CP55940 Bmax after AM-841 pretreatment: no distinct decrease
WT hCB2 receptor [15]; 9 nM AM-841, 1 hr, 30°C, then extensive wash-out, control membranes 1.05
  Bmax for [3H]-CP55940 binding after preincubation: 0.22 pmol/mg
WT hCB2 receptor [15]; 9 nM AM-841, 1 hr, 30°C, washed
  decrease in [3H]-CP55940 binding after AM-841 pretreatment: ~ 80%
WT hCB2 receptor [15]; data not shown
  irreversible AM-841 binding: ~ 80%

## CC(C)(CCCCCCBr)c1cc(O)c2c(c1)OC(C)(C)C1CCC(CO)CC21 (centres unmarked) [AM-4043]
[3]; radioligand [3H]-CP55940
  Ki: 1.51 nM
[3]; radioligand [3H]-WIN55212-2
  Ki: 1.4 nM
[4]; radioligand [3H]-CP55940
  enhancement of ability to displace CP55940 versus WT hCB2: at least 2 fold
  Ki: 0.88 nM
[4]; radioligand [3H]-WIN55212-2
  Ki: 0.8 nM

## CCCCCCC(C)(C)c1cc(O)c2c(c1)OC(C)(C)[C@@H]1CC[C@@H](CO)C[C@@H]21 [AM-4056]
[3]; radioligand [3H]-CP55940
  Ki: 1.52 nM
[3]; radioligand [3H]-WIN55212-2
  Ki: 1.2 nM
[4]; radioligand [3H]-CP55940
  enhancement of ability to displace CP55940 versus WT hCB2: at least 2 fold
  Ki: 1.03 nM
[4]; radioligand [3H]-WIN55212-2
  Ki: 0.5 nM
[5]
  Ki: 1.14 nM
[6]
  Ki: No Specific Binding
WT hCB2 receptor [8]
  IC50: 3.27 nM
[9]
  IC50: 2.62 nM
[10]
  IC50: 8.82 nM

## CN1CCCCC1Cn1cc(C(=O)c2ccccc2I)c2ccccc21 (centres unmarked) [AM-2233]
[3]; radioligand [3H]-WIN55212-2
  increase in affinity over WT hCB2 receptor: over 11 fold
  Ki: 0.8 nM
[4]; radioligand [3H]-WIN55212-2
  increase in affinity over WT hCB2 receptor: over 11 fold
  Ki: 0.5 nM
